Measurements taken from ChEMBL document CHEMBL1143834, “Activity of Garenoxacin against Macrolide-Susceptible and -Resistant Mycoplasma pneumoniae” (2007).
≈ marks a conversion by molar mass, not a printed value.

Tests used:
Format in all cases: functional
[1] = tested on: Mycoplasmoides pneumoniae; test: Antimicrobial activity against macrolide-resistant Mycoplasma pneumoniae with 23S rRNA A2063G mutant isolate 6
[2] = tested on: Mycoplasmoides pneumoniae; test: Antimicrobial activity against macrolide-resistant Mycoplasma pneumoniae with 23S rRNA A2064G mutant isolate 2
[3] = tested on: Mycoplasmoides pneumoniae; test: Antimicrobial activity against macrolide-resistant Mycoplasma pneumoniae with 23S rRNA A2064G mutant isolate 4
[4] = tested on: Mycoplasmoides pneumoniae; test: Antimicrobial activity against macrolide-susceptible Mycoplasma pneumoniae FH
[5] = tested on: Mycoplasmoides pneumoniae; test: Antimicrobial activity against macrolide-susceptible Mycoplasma pneumoniae Mac
[6] = tested on: Mycoplasmoides pneumoniae; test: Antimicrobial activity against macrolide-susceptible Mycoplasma pneumoniae M129
[7] = tested on: Mycoplasmoides pneumoniae; test: Antimicrobial activity against macrolide-resistant Mycoplasma pneumoniae with 23S rRNA A2063G mutant isolate 1

Structure (SMILES): CC[C@H]1OC(=O)[C@H](C)[C@@H](O[C@H]2C[C@@](C)(OC)[C@@H](O)[C@H](C)O2)[C@H](C)[C@@H](O[C@@H]2O[C@H](C)C[C@H](N(C)C)[C@H]2O)[C@](C)(OC)C[C@@H](C)C(=O)[C@H](C)[C@@H](O)[C@]1(C)O [CLARITHROMYCIN]
- MIC [1]: 32 µg/mL (≈ 42.8 µM)
- MIC [2]: 8 µg/mL (≈ 10.7 µM)
- MIC [3]: 8 µg/mL (≈ 10.7 µM)
- MIC [4]: 0.004 µg/mL (≈ 0.00535 µM)
- MIC [5]: 0.002 µg/mL (≈ 0.00267 µM)
- MIC [6]: 0.002 µg/mL (≈ 0.00267 µM)
- MIC [7]: 32 µg/mL (≈ 42.8 µM)

Structure (SMILES): C[C@H]1NCc2cc(-c3ccc4c(=O)c(C(=O)O)cn(C5CC5)c4c3OC(F)F)ccc21 [GARENOXACIN]
- MIC [1]: 0.031 µg/mL (≈ 0.0727 µM)
- MIC [2]: 0.016 µg/mL (≈ 0.0375 µM)
- MIC [3]: 0.016 µg/mL (≈ 0.0375 µM)
- MIC [4]: 0.016 µg/mL (≈ 0.0375 µM)
- MIC [5]: 0.016 µg/mL (≈ 0.0375 µM)
- MIC [6]: 0.016 µg/mL (≈ 0.0375 µM)
- MIC [7]: 0.016 µg/mL (≈ 0.0375 µM)

Structure (SMILES): COc1c(N2CCNC(C)C2)c(F)cc2c(=O)c(C(=O)O)cn(C3CC3)c12 (stereo not given) [GATIFLOXACIN]
- MIC [1]: 0.063 µg/mL (≈ 0.168 µM)
- MIC [2]: 0.063 µg/mL (≈ 0.168 µM)
- MIC [3]: 0.031 µg/mL (≈ 0.0826 µM)
- MIC [4]: 0.063 µg/mL (≈ 0.168 µM)
- MIC [5]: 0.063 µg/mL (≈ 0.168 µM)
- MIC [6]: 0.063 µg/mL (≈ 0.168 µM)
- MIC [7]: 0.031 µg/mL (≈ 0.0826 µM)

Structure (SMILES): C[C@H]1COc2c(N3CCN(C)CC3)c(F)cc3c(=O)c(C(=O)O)cn1c23.C[C@H]1COc2c(N3CCN(C)CC3)c(F)cc3c(=O)c(C(=O)O)cn1c23.O [LEVOFLOXACIN]
- MIC [1]: 0.5 µg/mL
- MIC [2]: 0.25 µg/mL
- MIC [3]: 0.25 µg/mL
- MIC [4]: 0.5 µg/mL
- MIC [5]: 0.25 µg/mL
- MIC [6]: 0.25 µg/mL
- MIC [7]: 0.25 µg/mL

Structure (SMILES): CN(C)c1ccc(O)c2c1C[C@H]1C[C@H]3[C@H](N(C)C)C(O)=C(C(N)=O)C(=O)[C@@]3(O)C(O)=C1C2=O [MINOCYCLINE]
- MIC [1]: 0.25 µg/mL (≈ 0.546 µM)
- MIC [2]: 0.25 µg/mL (≈ 0.546 µM)
- MIC [3]: 0.25 µg/mL (≈ 0.546 µM)
- MIC [4]: 0.5 µg/mL (≈ 1.09 µM)
- MIC [5]: 0.25 µg/mL (≈ 0.546 µM)
- MIC [6]: 0.25 µg/mL (≈ 0.546 µM)
- MIC [7]: 0.25 µg/mL (≈ 0.546 µM)
